Test results published in paper PMC9691367, “The PROTAC selectively degrading Bcl-xL represents a novel Hedgehog pathway inhibitor with capacity of combating resistance to Smoothened inhibitors while sparing bone growth” (Theranostics, 2022).
Like-named read-outs stand apart in the source and are kept apart here.

Key:
[1] = biological target: Mcl-1 (Homo sapiens, UniProt Q07820); test: Competitive fluorescence polarization assay, Mcl-1 / FAM-Bim; type: binding; details: Mcl-1 100 nM, FAM-Bim 5 nM
Experimental: Competitive fluorescence polarization assays were carried out in black-walled plates in assay buffer (20 mM Na2HPO4 ·12H2O, 20 mM NaH2PO4·12H2O, 1 mM EDTA, 50 mM NaCl, 0.05% PF-68). The use of protein/peptide probe pairs was as follows: Bcl-xL (5 nM) and FAM-Bad (5 nM), Bcl-2 (100 nM) and FAM-Bax (5 nM), Mcl-1 (100 nM) and FAM-Bim (5 nM). Assay buffer, proteins, drugs, and peptides were added to the assay plates sequentially. The assay plates were slightly shaken for 3 min and incubated for 30 min at room temperature. The fluorescence polarization was measured on a Synergy 2 reader (BioTek).

[2] = test system: IKZF1, IKZF3, SALL4, GSPT1; test: Western blot of CRBN neo-substrates in NIH-3T3 cells; type: cell-based; details: 24 h
Experimental: Cells were lysed in cell lysis buffer (50 mM Tris pH 8.0, 150 mM NaCl, 10% glycerol, 1 mM EDTA, 50 mM NaF, and 0.1% NP-40) supplemented with protease and phosphatase inhibitors. Total protein extracts of tissues were generated in radioimmunoprecipitation (RIPA) assay lysis buffer containing complete protease and phosphatase inhibitor cocktail. Protein content was quantified using the Pierce BCA Protein Assay Kit (#23225, Thermo Fisher Scientific). The proteins were separated by SDS-PAGE, electrophoretically transferred to polyvinylidene difluoride (PVDF) blotting membranes (#LC2002, Thermo Fisher Scientific), and subjected to routine immunoblot analysis with primary antibodies as follows: anti-Bcl-2 (#15071), anti-Mcl-1 (#94296), anti-VHL (#68547), anti-CRBN (#71810), and anti-Sufu (#2522) were obtained from Cell Signaling Technology (Danvers, Massachusetts, USA); anti-Bcl-xL (#ab32370), anti-Gli1 (#ab134906), and anti-Smoothened (#ab236465) were obtained from Abcam (Cambridge, CB2 0AX, UK); anti-GAPDH (#60004-1-Ig) and anti-β-tubulin (#10094-1-AP) were purchased from Proteintech Group, Inc. (Rosemont, IL 60018, USA). The results were quantified by densitometry using ImageJ software (NIH). […]
hydrochloride; DMAP = 4-dimethylaminopyridine; TFA = trifluoroacetic acid; DMF = N,N-dimethylformamide. […]

[3] = test system: Bcl-2 and Mcl-1; test: Western blot of Bcl-2 and Mcl-1 in NIH-3T3 cells; type: cell-based; details: 1 µM
Experimental: Cells were lysed in cell lysis buffer (50 mM Tris pH 8.0, 150 mM NaCl, 10% glycerol, 1 mM EDTA, 50 mM NaF, and 0.1% NP-40) supplemented with protease and phosphatase inhibitors. Total protein extracts of tissues were generated in radioimmunoprecipitation (RIPA) assay lysis buffer containing complete protease and phosphatase inhibitor cocktail. Protein content was quantified using the Pierce BCA Protein Assay Kit (#23225, Thermo Fisher Scientific). The proteins were separated by SDS-PAGE, electrophoretically transferred to polyvinylidene difluoride (PVDF) blotting membranes (#LC2002, Thermo Fisher Scientific), and subjected to routine immunoblot analysis with primary antibodies as follows: anti-Bcl-2 (#15071), anti-Mcl-1 (#94296), anti-VHL (#68547), anti-CRBN (#71810), and anti-Sufu (#2522) were obtained from Cell Signaling Technology (Danvers, Massachusetts, USA); anti-Bcl-xL (#ab32370), anti-Gli1 (#ab134906), and anti-Smoothened (#ab236465) were obtained from Abcam (Cambridge, CB2 0AX, UK); anti-GAPDH (#60004-1-Ig) and anti-β-tubulin (#10094-1-AP) were purchased from Proteintech Group, Inc. (Rosemont, IL 60018, USA). The results were quantified by densitometry using ImageJ software (NIH).

[4] = biological target: Bcl-xL (Homo sapiens, UniProt Q07817); test: Co-immunoprecipitation of Bcl-xL ubiquitination in 293T cells; type: cell-based; details: 293T cells with GST-Bcl-xL and HA-Ub, 1 µM, 4 h
Experimental: Cells were lysed in immunoprecipitation lysis buffer (#87787, Thermo Fisher Scientific) supplemented with protease and phosphatase inhibitor cocktail. Cell lysates were incubated with the indicated antibodies at 4 °C overnight, followed by incubation with Protein A/G Plus-Agarose beads (Santa Cruz Biotechnology) at 4 °C for 4 h. Immunoprecipitates were collected by centrifugation and washed three times with washing buffer. The complex was separated from the beads and then boiled for 10 min. The immunoprecipitates and inputs were analyzed by SDS-PAGE and immunoblot using the antibodies as indicated. […]
hydrochloride; DMAP = 4-dimethylaminopyridine; TFA = trifluoroacetic acid; DMF = N,N-dimethylformamide. (D) A representative western blot analysis of SALL4 in NIH-3T3 cells after being treated with SIAIS361034 as indicated for 24 h. (E) A representative western blot analysis of hemagglutinin (HA), Bcl-xL, and GAPDH following GST-Bcl-xL immunoprecipitation of protein extracts from 293T cells. Cells were cotransfected as indicated with GST-Bcl-xL and HA-tagged ubiquitin (HA-Ub) and then were treated with or without SIAIS361034 (1 µM) and MG132 (10 µM) as […]

[5] = test system: Hh pathway (Gli-luciferase) provoked by Smo WT / Smo mutants; test: Dual luciferase reporter assay, Hh activity induced by ectopic Smo WT or Smo mutants in light II cells; type: cell-based; details: for IC50: 36 h
Text: The TCF/LEF luciferase reporter plasmid, NF-κB luciferase reporter plasmid, and TK-Renilla luciferase plasmid were purchased from Promega (Madison, WI, USA). Smo plasmid was purchased from Origene (Rockville, MD, USA). The Smo mutant plasmids were generated from wild type Smo plasmid using QuickChange Site-Directed Mutagenesis kit from Agilent (Santa Clara, CA, USA) and confirmed by sequencing. Information on Smo mutants plasmids is provided in Supplementary data 2. The Gli1 plasmid and Gli2-HA plasmid were obtained from Addgene (Cambridge, MA, USA). Transient transfections were performed by Lipofectamine 2000 reagent from Invitrogen (Grand Island, NY, USA) according to the manufacturer's instructions.
Cells seeded in 96-well plates were treated with various treatments as indicated. The luciferase activity in the cell lysates was measured using Dual-Luciferase Reporter Assay System (Promega, Madison, WI, USA) according to the manufacturer's instructions in a luminometer (Molecular Devices, Sunnyvale, CA). The firefly luciferase values were normalized to Renilla values.

Chain of Mcl-1 (Q07820 whole entry, species assumed): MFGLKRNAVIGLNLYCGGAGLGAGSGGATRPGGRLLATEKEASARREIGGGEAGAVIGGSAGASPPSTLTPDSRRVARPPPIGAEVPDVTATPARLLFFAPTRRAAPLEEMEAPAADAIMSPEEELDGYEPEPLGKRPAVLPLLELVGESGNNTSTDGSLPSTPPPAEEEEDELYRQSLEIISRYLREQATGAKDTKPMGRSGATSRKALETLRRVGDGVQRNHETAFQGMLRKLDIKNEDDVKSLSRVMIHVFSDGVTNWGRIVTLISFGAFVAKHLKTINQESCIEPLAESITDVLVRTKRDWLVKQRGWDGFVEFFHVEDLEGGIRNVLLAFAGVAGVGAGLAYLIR
Chain of Bcl-xL (Q07817 whole entry, species assumed): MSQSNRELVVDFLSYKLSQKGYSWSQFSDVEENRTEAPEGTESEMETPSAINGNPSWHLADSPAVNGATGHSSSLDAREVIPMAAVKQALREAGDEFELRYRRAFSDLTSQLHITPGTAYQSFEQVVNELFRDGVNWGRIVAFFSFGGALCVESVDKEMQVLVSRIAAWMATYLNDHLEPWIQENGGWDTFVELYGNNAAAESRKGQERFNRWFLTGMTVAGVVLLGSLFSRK

For `CC1(C)CCC(c2ccc(Cl)cc2)=C(CN2CCN(c3ccc(C(=O)NS(=O)(=O)c4ccc(NCCCN5CCN(CCCC#Cc6cccc7c6CN(C6CCC(=O)NC6=O)C7=O)CC5)c(S(=O)(=O)C(F)(F)F)c4)cc3)CC2)C1` (stereo not shown) [SIAIS361034], the Ki [1] was over 10000 nM, the “abundance of CRBN neo-substrates IKZF1, IKZF3, SALL4, GSPT1” value [2] was “did not affect abundance” and the “levels of Bcl-2 and Mcl-1” value [3] was “did not change the levels of Bcl-2 and Mcl-1”. For the same molecule, the Bcl-xL ubiquitination [4] was “induce Bcl-xL ubiquitination”, the “IC50 shift between Smo wild-type and mutations” value ([5]; Gli-luciferase) was “no significant IC50 shift” and the “Hh activity provoked by wild type Smo and Smo mutants” value ([5]; Smo WT, D473H, H231R, W281C, W535L, L412F, F460L, GDC-0449 10 μM (Figure S3B-D)) was “obviously inhibited”. It also gave an IC50 ([5]; ectopic Smo D473H, read-out: IC50 value, Smo D473H) of 188 nM, an IC50 ([5]; ectopic Smo F460L, read-out: IC50 value, Smo F460L) of 147 nM and an IC50 ([5]; ectopic Smo H231R, read-out: IC50 value, Smo H231R) of 117 nM. The IC50 ([5]; ectopic Smo L412F, read-out: IC50 value, Smo L412F) was 40.4 nM, the IC50 ([5]; ectopic Smo W281C, read-out: IC50 value, Smo W281C) was 92.9 nM and the IC50 ([5]; ectopic Smo W535L, read-out: IC50 value, Smo W535L) was 171 nM. The IC50 ([5]; ectopic Smo WT, read-out: IC50 value, Smo WT) was 186 nM.
